Laboratory results reported in patent publication US20260035339A1, “TETRAHYDRONAPHTHALENE DERIVATIVE” (ATRANSEN PHARMA LTD., priority 2022, published 2026).

What was measured:
Format in all cases: cell-based
[1] = test system: Mouse colorectal cancer-derived CT26 cells; assay: Cell proliferation inhibitory effect using mouse colorectal cancer cells (CCK-8 assay); settings: 72 hours compound treatment, read-out: Evaluation of IC50 (proliferation inhibition rate of 50%)
Method: Mouse colorectal cancer-derived CT26 cells were adjusted to […], seeded in a 96-well plate at 1000 cells/well, and cultured in a 10% fetal bovine serum-added RPMI 1640 medium at 5% CO2 and 37° C. The culture medium was changed 24 hours after the start of the culture, and the medium containing the compound of Example was replaced to examine the action of the compound on cell proliferation. As the compound, a concentration of 0.01, 0.03, 0.1, 0.3, 1, 3, 10, or 30 μM was used. As a control, the cells were cultured in a medium containing no compound. The number of cells was evaluated by CCK-8 assay (Cell Counting Kit-8, DOJINDO LABORATORIES) 72 hours after the start of the compound treatment, and the compound concentration (IC50 value) giving a proliferation inhibition rate of 50% as compared with the control was calculated.

human LAT1 [2] = molecular target: T1, human LAT1 (Homo sapiens, UniProt Q01650); assay: Leucine uptake persistence inhibitory effect after compound removal in human-LAT1 highly expressing cell line; settings: 20 μM compound for 30 minutes, removed, uptake measured 30 minutes later
Method: The uptake of [^14C]L-leucine remaining after the compound of the present invention was caused to act in advance and removed in the human-LAT1 highly expressing cell line was examined. In the same manner as in the uptake inhibition test, the cell line was seeded in a 24-well plate, and an MEM (Minimum Essential Medium) medium containing 20 μM of the compound (racemic form) was added to the wells and allowed to act for 30 minutes. An MEM medium containing no compound was used as a control. After the compound was caused to act, the cells were washed 3 times with the MEM medium and cultured in the MEM medium for an additional 30 minutes. Thereafter, washing was performed 3 times with Na^+Free-HBSS, and 1 μM of [^14C]L-leucine dissolved in Na^+Free-HBSS was taken up for 1 minute. The cells were washed 3 times with ice-cooled Na^+Free-HBSS, and the amount of [^14C]L-leucine taken up in the cells was determined with a liquid scintillator. In the same manner as in other tests, the amount of protein in the cell fluid was measured, and the uptake amount of [^14C]L-leucine per 1 mg of protein in the cell fluid per minute was determined.

human LAT1 [3] = molecular target: T1, human LAT1; assay: [14C]L-leucine uptake inhibition test using human-LAT1 stably expressing HEK293 cell line; set-up: having full-length cDNA of human LAT1 or LAT2 inserted under a promoter of CMV; expressed in transfected cells; key to Assay Data: degree of [14C]L-leucine uptake inhibition compared with BCH: a test compound having a higher inhibitory effect than BCH is denoted by A; a test compound having the same inhibitory effect as BCH is denoted by B; a test compound having a lower inhibitory effect than BCH is denoted by C; settings: for Assay Data: degree of [14C]L-leucine uptake inhibition compared with BCH: compound (racemic form) and BCH at 0.1, 1.0, 10 μM, 1 μM [14C]L-leucine, 1 minute, Na+-free HBSS; for LAT1 inhibitory effect, compounds singled out (in words): same test as Table 1
Description: HEK293 cells stably expressing human LAT1 and LAT2 were produced, respectively.
A shuttle vector DNA (LAT1: pcDNA3.1(+) -hLAT1, LAT2: pcDNA3.1(+) -hLAT2; expression vector pcDNA3.1 (+) was produced by Invitrogen Corp.) having ampicillin and neomycin resistance markers and having full-length cDNA of human LAT1 or LAT2 inserted under a promoter of CMV (cytomegalovirus) was constructed. This vector was transfected into the HEK293 cells by a method using Lipofectamine (registered trademark) 2000 (Invitrogen Corp.) according to the manufacturer's instructions. Thereafter, stably expressing cell clones of transgene were selected by a limiting dilution method in the presence of 0.9 mg/mL of Geneticin (registered trademark), and among the obtained cell clones, cell clones having a high uptake of [^14C]L-leucine and maintaining stable expression even after 10 passages were obtained. These cells were used for evaluating affinity and selectivity for LAT1 and LAT2.
1-1. It has been confirmed that LAT1 is responsible for L-leucine uptake in the absence of sodium ions in the human-LAT1 stably expressing HEK293 cell line. The human-LAT1 stably expressing HEK293 cell line was seeded in a 24-well plate at 1×10^5 Cell/Well, and the [^14C]L-leucine uptake inhibition test using the compound was performed after 48 hours. After the medium was removed and the cells were washed with Hank's balanced salt solution (Na^+-free HBSS) not containing sodium ions, the cells were cultured in Na^+-free HBSS for 10 minutes. Thereafter, 1 μM of [^14C]L-leucine was taken up in Na^+-free HBSS in the presence of a test compound (0.1, 1.0, 10, 0 μM in each case), which is a racemic form, for 1 minute, and then the cells were washed three times with ice-cooled Na^+-free HBSS. To the well, 500 μL of 1 M NaOH was added, and after 30 minutes, the cells were lysed, and the cell lysate was collected. The amount of [^14C]L-leucine in the cell lysate was determined using a liquid scintillator. The amount of protein in the cell lysate was measured using BCA Assay Kit (Thermofisher Scientific), and the uptake amount of [^14C]L-leucine per 1 mg of protein in the cell per minute was calculated.
The degree of LAT1 inhibition of the compound obtained in the present invention was compared with BCH (BCH, 2-aminobicyclo-(2,2,1)-heptane-2-carboxylic acid), which is an existing LAT1 inhibitor. In the [^14C]L-leucine uptake inhibition test described above, the degrees of inhibition of [^14C]L-leucine uptake inhibition using the compound (racemic form) obtained in Examples and BCH (0.1, 1.0, 10, 0 μM for both) were compared. […] In the table, a test compound having a higher inhibitory effect than BCH is denoted by A, a test compound having the same inhibitory effect as BCH is denoted by B, and a test compound having a lower inhibitory effect than BCH is denoted by C.

T1 sequence (Q01650 whole entry): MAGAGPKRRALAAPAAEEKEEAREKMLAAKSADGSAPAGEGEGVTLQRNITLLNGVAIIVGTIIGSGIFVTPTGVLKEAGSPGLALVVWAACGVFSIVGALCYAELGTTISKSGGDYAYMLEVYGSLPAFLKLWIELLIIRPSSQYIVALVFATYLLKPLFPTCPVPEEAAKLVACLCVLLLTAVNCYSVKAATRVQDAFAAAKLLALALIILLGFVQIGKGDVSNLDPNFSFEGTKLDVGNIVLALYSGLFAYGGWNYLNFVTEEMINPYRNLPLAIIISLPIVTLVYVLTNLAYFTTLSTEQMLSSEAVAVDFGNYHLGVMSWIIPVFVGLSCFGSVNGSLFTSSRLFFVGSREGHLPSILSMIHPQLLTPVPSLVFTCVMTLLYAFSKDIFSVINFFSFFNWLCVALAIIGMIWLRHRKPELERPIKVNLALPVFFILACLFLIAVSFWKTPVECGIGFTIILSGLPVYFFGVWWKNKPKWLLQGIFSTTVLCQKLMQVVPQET
T1 sequence (P08195 102-630 partner): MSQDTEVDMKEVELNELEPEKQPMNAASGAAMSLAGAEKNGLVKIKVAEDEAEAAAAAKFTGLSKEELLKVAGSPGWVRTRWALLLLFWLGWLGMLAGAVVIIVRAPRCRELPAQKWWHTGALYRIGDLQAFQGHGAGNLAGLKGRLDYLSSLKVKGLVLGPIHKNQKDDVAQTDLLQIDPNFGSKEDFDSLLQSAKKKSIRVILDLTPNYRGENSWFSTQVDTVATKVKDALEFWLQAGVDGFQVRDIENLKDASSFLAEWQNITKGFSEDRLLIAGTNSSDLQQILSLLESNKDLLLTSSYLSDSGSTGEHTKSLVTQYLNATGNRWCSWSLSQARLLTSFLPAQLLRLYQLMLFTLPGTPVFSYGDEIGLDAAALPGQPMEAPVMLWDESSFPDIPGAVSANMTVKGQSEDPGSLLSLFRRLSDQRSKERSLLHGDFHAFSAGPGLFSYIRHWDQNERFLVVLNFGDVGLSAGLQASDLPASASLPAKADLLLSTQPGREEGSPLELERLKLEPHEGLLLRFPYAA

Row | SMILES | IC50 [1] | sustained LAT1 inhibitory effect as compared with Example 1-1 (human LAT1 [2]) | Assay Data: degree of [14C]L-leucine uptake inhibition compared with BCH (human LAT1 [3]) | LAT1 inhibitory effect, compounds singled out (in words) (human LAT1 [3])
1 | CSc1cccc(-c2ccccc2Oc2ccc3c(c2)CC(N)(C(=O)O)CC3)c1.Cl (stereo not shown) [Example 1-52, 2-Carboxy-7-((3′-(methylthio)-[1,1′-biphenyl]-2-yl)oxy)-1,2,3,4-tetrahydronaphthalene-2-aminium chloride] | ≤ 0.9 µM | more remarkable effect | A | –
2 | Cl.NC1(C(=O)O)CCc2ccc(Oc3ccccc3-c3cccc(Cl)c3Cl)cc2C1 (stereo not shown) [Example 1-53, 2-carboxy-7-((2′,3′-dichloro-[1,1′-biphenyl]-2-yl)oxy)-1,2,3,4-tetrahydronaphthalene-2-aminium chloride] | ≤ 0.9 µM | more remarkable effect | A | particularly remarkable effects
3 | Cl.NC1(C(=O)O)CCc2ccc(Oc3ccccc3-c3cc(F)cc(F)c3)cc2C1 (stereo not shown) [Example 1-65, 2-Carboxy-7-((3′,5′-difluoro-[1,1′-biphenyl]-2-yl)oxy)-1,2,3,4-tetrahydronaphthalene-2-aminium chloride] | ≤ 0.9 µM | – | A | –
4 | Cl.NC1(C(=O)O)CCc2ccc(Oc3ccccc3-c3cc(F)cc(Cl)c3)cc2C1 (stereo not shown) [Example 1-66, 2-Carboxy-7-((3′-chloro-5′-fluoro-[1,1′-biphenyl]-2-yl)oxy)-1,2,3,4-tetrahydronaphthalene-2-aminium chloride] | ≤ 0.9 µM | – | A | –
5 | NC1(C(=O)O)CCc2ccc(Oc3ccccc3-c3cc(F)cc(Cl)c3Cl)cc2C1 (stereo not shown) [Example 1-67, 2-carboxy-7-((2′,3′-dichloro-5′-fluoro-[1,1′-biphenyl]-2-yl)oxy)-1,2,3,4-tetrahydronaphthalene-2-aminium chloride] | ≤ 0.9 µM | – | A | –
6 | Cl.NC1(C(=O)O)CCc2ccc(Oc3ccc([N+](=O)[O-])cc3-c3cccc4ccccc34)cc2C1 (stereo not shown) [Example 1-69, 2-Carboxy-7-(2-(naphthalen-1-yl)-4-nitrophenoxy)-1,2,3,4-tetrahydronaphthalene-2-aminium chloride] | ≤ 0.9 µM | – | A | –

Now from value to molecule:

Row | IC50 [1] | sustained LAT1 inhibitory effect as compared with Example 1-1 (human LAT1 [2]) | Assay Data: degree of [14C]L-leucine uptake inhibition compared with BCH (human LAT1 [3]) | LAT1 inhibitory effect, compounds singled out (in words) (human LAT1 [3]) | SMILES
7 | ≤ 0.9 µM | more remarkable effect | A | – | Cl.NC1(C(=O)O)CCc2ccc(Oc3ccccc3-c3cccc(F)c3)cc2C1 (stereo not shown) [Example 1-30, 2-carboxy-7-((3′-fluoro-[1,1′-biphenyl]-2-yl)oxy)-1,2,3,4-tetrahydronaphthalene-2-aminium chloride]
8 | ≤ 0.9 µM | more remarkable effect | A | – | Cl.NC1(C(=O)O)CCc2ccc(Oc3ccccc3-c3cccc(Cl)c3)cc2C1 (stereo not shown) [Example 1-33, 2-carboxy-7-((3′-chloro-[1,1′-biphenyl]-2-yl)oxy)-1,2,3,4-tetrahydronaphthalene-2-aminium chloride]
9 | ≤ 0.9 µM | more remarkable effect | A | – | Cl.NC1(C(=O)O)CCc2ccc(Oc3ccccc3-c3cccc4ccccc34)cc2C1 (stereo not shown) [Example 1-35, 2-Carboxy-7-(2-(naphthalen-1-yl)phenoxy)-1,2,3,4-tetrahydronaphthalene-2-aminium chloride]
10 | ≤ 0.9 µM | more remarkable effect | A | – | Cl.NC1(C(=O)O)CCc2ccc(Oc3ccccc3-c3cccc([N+](=O)[O-])c3)cc2C1 (stereo not shown) [Example 1-42, 2-carboxy-7-((3′-nitro-[1,1′-biphenyl]-2-yl)oxy)-1,2,3,4-tetrahydronaphthalene-2-aminium chloride]
11 | ≤ 0.9 µM | more remarkable effect | A | – | Cc1cccc(-c2ccccc2Oc2ccc3c(c2)CC(N)(C(=O)O)CC3)c1.Cl (stereo not shown) [Example 1-43, 2-carboxy-7-((3′-methyl-[1,1′-biphenyl]-2-yl)oxy)-1,2,3,4-tetrahydronaphthalene-2-aminium chloride]
12 | ≤ 0.9 µM | more remarkable effect | A | particularly remarkable effects | Cc1cccc2cccc(Oc3ccc4c(c3)CC(N)(C(=O)O)CC4)c12.Cl (stereo not shown) [Example 1-46, 2-carboxy-7-((8-methylnaphthalen-1-yl)oxy)-1,2,3,4-tetrahydronaphthalene-2-aminium chloride]
13 | ≤ 0.9 µM | more remarkable effect | A | – | Cl.NC1(C(=O)O)CCc2ccc(Oc3ccccc3-c3ccc(F)c(Cl)c3)cc2C1 (stereo not shown) [Example 1-48, 2-carboxy-7-((3′-Chloro-4′-fluoro-[1,1′-biphenyl]-2-yl)oxy)-1,2,3,4-tetrahydronaphthalene-2-aminium chloride]
14 | ≤ 0.9 µM | more remarkable effect | A | – | Cl.NC1(C(=O)O)CCc2ccc(Oc3ccccc3-c3cccc(F)c3Cl)cc2C1 (stereo not shown) [Example 1-49, 2-Carboxy-7-((2′-Chloro-3′-fluoro-[1,1′-biphenyl]-2-yl)oxy)-1,2,3,4-tetrahydronaphthalene-2-aminium chloride]
15 | ≤ 0.9 µM | more remarkable effect | A | – | CN(C)c1cccc(-c2ccccc2Oc2ccc3c(c2)CC(N)(C(=O)O)CC3)c1.Cl.Cl (stereo not shown) [Example 1-50, 2-Carboxy-7-((3′-(Dimethylammonio)-[1,1′-biphenyl]-2-yl)oxy)-1,2,3,4-tetrahydronaphthalene-2-aminium chloride]
